# Experimental data from US9718819B2 (Merck Sharp & Dohme Corp., priority 2012, dated 2017).
# Target: HIV-1 RT wild-type enzyme (Human immunodeficiency virus type 1 group M subtype B (isolate HXB2) (HIV-1), UniProt P04585)
# Assay: HIV-1 reverse transcriptase inhibitory activity (RT polymerase assay)
# Format: biochemical
# Settings: HIV-1 RT wild-type enzyme 83 pM; RNA-dependent DNA polymerase activity; read-out: IC50
# How it was run: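 Biotinylated DNA primer annealed to HCV-derived RNA template (16.6 nM final hybrid), with 2 μM dATP/dGTP/dCTP and 66.6 nM Ru-dUTP, after 30 min compound–enzyme preincubation at room temperature; polymerization 90 min at 37 °C, EDTA quench. Product captured on avidin plates, electrochemiluminescence read; IC50 by four-parameter logistic fit versus DMSO and 1 μM efavirenz controls.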
row,SMILES,IC50
1,"CNc1ncc(Cn2cnc(C(F)(F)F)c(Oc3cc(Cl)cc(C#N)c3)c2=O)c(OC)n1 [Example 138, 3-chloro-5-((1-((4-methoxy-2-(methylamino)pyrimidin-5-yl)methyl)-6-oxo-4-(trifluoromethyl)-1,6-dihydropyrimidin-5-yl)oxy)benzonitrile]",11 nM
2,"N#Cc1cc(Cl)cc(Oc2c(C(F)(F)F)ncn(Cc3cnc(OCC(F)(F)F)[nH]c3=O)c2=O)c1 [Example 139, 3-Chloro-5-{6-oxo-1-[6-oxo-2-(2,2,2-trifluoro-ethoxy)-1,6-dihydro-pyrimidin-5-ylmethyl]-4-trifluoromethyl-1,6-dihydro-pyrimidin-5-yloxy}-benzonitrile]",45 nM
3,"N#Cc1cc(Cl)cc(Oc2c(C(F)(F)F)ncn(Cc3cnc(Oc4ccc(F)cc4)[nH]c3=O)c2=O)c1 [Example 140, 3-Chloro-5-{1-[2-(4-fluoro-phenoxy)-6-oxo-1,6-dihydro-pyrimidin-5-ylmethyl]-6-oxo-4-trifluoromethyl-1,6-dihydro-pyrimidin-5-yloxy}-benzonitrile]",36 nM
4,"CN(C)c1ncc(Cn2cnc(C(F)(F)F)c(Oc3cc(Cl)cc(C#N)c3)c2=O)c(=O)[nH]1 [Example 141, 3-Chloro-5-[1-(2-dimethylamino-6-oxo-1,6-dihydro-pyrimidin-5-ylmethyl)-6-oxo-4-trifluoromethyl-1,6-dihydro-pyrimidin-5-yloxy]-benzonitrile]",13 nM
5,"N#Cc1cc(Cl)cc(Oc2c(C(F)(F)F)ncn(Cc3cnc(-n4cccn4)[nH]c3=O)c2=O)c1 [Example 142, 3-Chloro-5-[6-oxo-1-(6-oxo-2-pyrazol-1-yl-1,6-dihydro-pyrimidin-5-ylmethyl)-4-trifluoromethyl-1,6-dihydro-pyrimidin-5-yloxy]-benzonitrile]",35 nM
6,"N#Cc1cc(Cl)cc(Oc2c(C(F)(F)F)ncn(Cc3cnc(N)[nH]c3=O)c2=O)c1 [Example 143, 3-((1-((2-amino-6-oxo-1,6-dihydropyrimidin-5-yl)methyl)-6-oxo-4-(trifluoromethyl)-1,6-dihydropyrimidin-5-yl)oxy)-5-chlorobenzonitrile]",7 nM
7,"CCc1ncc(Cn2cnc(C(F)(F)F)c(Oc3cc(Cl)cc(C#N)c3)c2=O)c(=O)[nH]1 [Example 144, 3-chloro-5-((1-((2-ethyl-6-oxo-1,6-dihydropyrimidin-5-yl)methyl)-6-oxo-4-(trifluoromethyl)-1,6-dihydropyrimidin-5-yl)oxy)benzonitrile]",9 nM
8,"N#Cc1cc(Cl)cc(Oc2c(C(F)(F)F)ncn(Cc3cnc(C4CC4)[nH]c3=O)c2=O)c1 [Example 145, 3-chloro-5-((1-((2-cyclopropyl-6-oxo-1,6-dihydropyrimidin-5-yl)methyl)-6-oxo-4-(trifluoromethyl)-1,6-dihydropyrimidin-5-yl)oxy)benzonitrile]",9 nM
9,"N#Cc1cc(Cl)cc(Oc2c(C(F)(F)F)ncn(Cc3cnc(-c4ccc(F)cc4)[nH]c3=O)c2=O)c1 [Example 146, 3-chloro-5-((1-((2-(4-fluorophenyl)-6-oxo-1,6-dihydropyrimidin-5-yl)methyl)-6-oxo-4-(trifluoromethyl)-1,6-dihydropyrimidin-5-yl)oxy)benzonitrile]",19 nM
10,"N#Cc1cc(Cl)cc(Oc2c(C(F)(F)F)ncn(Cc3cnc(-c4ccccc4F)[nH]c3=O)c2=O)c1 [Example 147, 3-chloro-5-((1-((2-(2-fluorophenyl)-6-oxo-1,6-dihydropyrimidin-5-yl)methyl)-6-oxo-4-(trifluoromethyl)-1,6-dihydropyrimidin-5-yl)oxy)benzonitrile]",17 nM
11,"N#Cc1cc(Cl)cc(Oc2c(C(F)(F)F)ncn(Cc3cnc(-c4ccn[nH]4)[nH]c3=O)c2=O)c1 [Example 148, 3-chloro-5-((6-oxo-1-((6-oxo-2-(1H-pyrazol-5-yl)-1,6-dihydropyrimidin-5-yl)methyl)-4-(trifluoromethyl)-1,6-dihydropyrimidin-5-yl)oxy)benzonitrile]",9 nM
12,"N#Cc1cc(Cl)cc(Oc2c(C(F)(F)F)ncn(Cc3cnc(-c4ccccc4)[nH]c3=O)c2=O)c1 [Example 149, 3-chloro-5-((6-oxo-1-((6-oxo-2-phenyl-1,6-dihydropyrimidin-5-yl)methyl)-4-(trifluoromethyl)-1,6-dihydropyrimidin-5-yl)oxy)benzonitrile]",14 nM
13,"N#Cc1cc(Cl)cc(Oc2c(C(F)(F)F)ncn(Cc3cnc(-c4cccc(F)c4)[nH]c3=O)c2=O)c1 [Example 150, 3-chloro-5-((1-((2-(3-fluorophenyl)-6-oxo-1,6-dihydropyrimidin-5-yl)methyl)-6-oxo-4-(trifluoromethyl)-1,6-dihydropyrimidin-5-yl)oxy)benzonitrile]",9 nM
14,"N#Cc1cc(Cl)cc(Oc2c(C(F)(F)F)ncn(Cc3cnc(-c4ccc(Cl)cc4)[nH]c3=O)c2=O)c1 [Example 151, 3-chloro-5-((1-((2-(4-chlorophenyl)-6-oxo-1,6-dihydropyrimidin-5-yl)methyl)-6-oxo-4-(trifluoromethyl)-1,6-dihydropyrimidin-5-yl)oxy)benzonitrile]",28 nM
15,"N#Cc1cc(Cl)cc(Oc2c(C(F)(F)F)ncn(Cc3cnc(-c4ccc(Cl)nc4)[nH]c3=O)c2=O)c1 [Example 152, 3-chloro-5-((1-((2-(6-chloropyridin-3-yl)-6-oxo-1,6-dihydropyrimidin-5-yl)methyl)-6-oxo-4-(trifluoromethyl)-1,6-dihydropyrimidin-5-yl)oxy)benzonitrile]",32 nM
16,"N#Cc1cc(Cl)cc(Oc2c(C(F)(F)F)ncn(Cc3cnc(-c4ccc(OC(F)(F)F)cc4)[nH]c3=O)c2=O)c1 [Example 153, 3-chloro-5-((6-oxo-1-((6-oxo-2-(4-(trifluoromethoxy)phenyl)-1,6-dihydropyrimidin-5-yl)methyl)-4-(trifluoromethyl)-1,6-dihydropyrimidin-5-yl)oxy)benzonitrile]",33 nM
17,"N#Cc1cc(Cl)cc(Oc2c(C(F)(F)F)ncn(Cc3cnc(C(N)=O)[nH]c3=O)c2=O)c1 [Example 154, 5-((5-(3-chloro-5-cyanophenoxy)-6-oxo-4-(trifluoromethyl)pyrimidin-1(6H)-yl)methyl)-6-oxo-1,6-dihydropyrimidine-2-carboxamide]",42 nM
18,"N#Cc1cc(Cl)cc(Oc2c(C(F)(F)F)ncn(Cc3cnc(C#N)[nH]c3=O)c2=O)c1 [Example 155, 5-((5-(3-chloro-5-cyanophenoxy)-6-oxo-4-(trifluoromethyl)pyrimidin-1(6H)-yl)methyl)-6-oxo-1,6-dihydropyrimidine-2-carbonitrile]",94 nM
19,"CC(=O)c1ncc(Cn2cnc(C(F)(F)F)c(Oc3cc(Cl)cc(C#N)c3)c2=O)c(=O)[nH]1 [Example 156, 3-((1-((2-acetyl-6-oxo-1,6-dihydropyrimidin-5-yl)methyl)-6-oxo-4-(trifluoromethyl)-1,6-dihydropyrimidin-5-yl)oxy)-5-chlorobenzonitrile]",24 nM
20,"N#Cc1cc(Cl)cc(Oc2c(C(F)(F)F)ncn(Cc3cnc(C(F)F)[nH]c3=O)c2=O)c1 [Example 157, 3-chloro-5-((1-((2-(difluoromethyl)-6-oxo-1,6-dihydropyrimidin-5-yl)methyl)-6-oxo-4-(trifluoromethyl)-1,6-dihydropyrimidin-5-yl)oxy)benzonitrile]",32 nM
